Measured values from patent US20070179084A1, “Process for reducing the concentration of blood glucose in a diabetic patient” (Nation Chiao Tung University, priority 2006, published 2007).

Legend:
C2C12 cells [1] = experiment: Glucose absorption (2-deoxy-D-glucose uptake) by differentiated C2C12 myotubes, Amplex Red Glucose/Glucose Oxidase Assay Kit; assay type: cell-based, mouse; settings: for glucose absorption in contrast to C2C12 cells without stimulation (in words): 0.1 μM, 1 μM, 10 μM and 100 μM metal solution
Description: The cells are cultured and differentiate. […] Then, a half of the culture media are removed and replaced with fresh differentiation media (90% DMEM (Dulbecco's Modified Eagle's Medium) and 10% FBS (fetal bovine serum)). […] In normal physiological conditions, the myotube differentiates from the myoblast and aggregates to form muscle. Therefore, the myotube has a cell type most similar to muscle, so that the cell type of used cells is a myotube in the whole test experiment. The glucose extracted from the cells is determined. […] When starting the experiment, add the stimulating samples with suitable concentration to the culture media and incubate at 37° C. for 30 minutes (mins). […] Finally, incubate the cells on ice for 10 mins, to stop the reaction. Then, remove the culture media, and wash the cells three times with an ice-cold PBS solution. After washing, scrape the cells from the plate with ice-cold 65% EtOH and sonicate the cells. After spun in a centrifuge at 13000 rpm and 4° C. for 15 mins, transfer the supernatant to fresh the eppendorf tube and then spin the remainder in the centrifuge again to collect the supernatant again. The collected supernatants are mixed and dry the supernatant by vacuum centrifugation. After drying, the sample is acquired and assayed for […] levels using the Amplex Red Glucose/Glucose Oxidase Assay Kit.

C2C12 cells [2] = experiment: Observation of change in cell type, floating and damage of C2C12 cells after stimulation
Description: In FIG. 4, the columns with the same patterns represent the C2C12 cells stimulated by the same metal ion (or oxidized metal ion) solutions and the sign under the transverse axle indicates the concentration of the metal ion (or oxidized metal ion) solution, corresponding to each column.
In FIG. 8, the columns with the same patterns represent treatment with the same complex and the sign under the transverse axle indicates the concentration of the complex corresponding to each column.

[3] = 40 μg/ml complex, co-treated with 10 μM insulin, vs no stimulating sample
[4] = 40 mg/ml complex solution including 1 mM metal ion and the insulin
[5] = 0.1 μM metal solution, co-treatment with 1 μM insulin, vs no stimulating sample
[6] = 1 μM metal solution, co-treatment with 10 μM insulin, vs no stimulating sample
[7] = 10 μM metal solution, co-treatment with 6 pM insulin, vs no stimulating sample
[8] = 100 μM metal solution, 30 min, vs C2C12 cells without stimulation
[9] = 100 μM metal solution, co-treatment with 1 μM insulin, vs no stimulating sample
[10] = 1 mM metal solution and the insulin
[11] = 1 mM metal solution, no insulin
[12] = 40 mg/ml solution including 1 mM metal ion, no insulin
[13] = 10 μM metal solution, 30 min, vs C2C12 cells without stimulation

VO-TF: complex of the transferrin and VO^2+
fold increase in glucose absorption (C2C12 cells [1]; [3]): 6.07 fold | fold increase in glucose absorption (C2C12 cells [1]; 40 μg/ml complex, vs no stimulating sample): 4.43 fold | fold increase in glucose absorption (C2C12 cells [1]; [4]): 6.1 fold

Co-TF: complex of the transferrin and Co^3+, from apo-transferrin and Co^3+ solution (3:1 mole ratio)
fold increase in glucose absorption (C2C12 cells [1]; [3]): 7.01 fold | fold increase in glucose absorption (C2C12 cells [1]; 100 μg/ml complex, vs no stimulating sample): 4.97 fold | fold increase in glucose absorption (C2C12 cells [1]; [4]): 7.1 fold

[Co+3] [Co^3+, cobalt (III) ion]
fold increase in glucose absorption (C2C12 cells [1]; [5]): 7.73 fold | glucose absorption in contrast to C2C12 cells without stimulation (in words) (C2C12 cells [1]): enhanced | fold increase in glucose absorption (C2C12 cells [1]; [6]): 4.37 fold | fold increase in glucose absorption (C2C12 cells [1]; [7]): 3.95 fold | fold increase in glucose absorption (C2C12 cells [1]; [8]): 3.14 fold | fold increase in glucose absorption (C2C12 cells [1]; [9]): 8.5 fold | fold increase in glucose absorption (C2C12 cells [1]; [10]): 4.4 fold | fold increase in glucose absorption (C2C12 cells [1]; [11]): 2.5 fold | fold increase in glucose absorption (C2C12 cells [1]; [12]): 3.0 fold | change of cell type / damage of C2C12 cells (C2C12 cells [2]; 100 μM metal solution with insulin co-treatment): the type of C2C12 cells changes and the C2C12 cells are damaged | change of cell type / damage of C2C12 cells (C2C12 cells [2]; stimulation for 30 mins, 100 μM (high concentration) for metal solution): damaged at a certain level

[Cr+3] [Cr^3+, chromium (III) ion]
fold increase in glucose absorption (C2C12 cells [1]; [5]): 4.84 fold | glucose absorption in contrast to C2C12 cells without stimulation (in words) (C2C12 cells [1]): enhanced | fold increase in glucose absorption (C2C12 cells [1]; 1 μM metal solution, co-treatment with 1 μM insulin, vs no stimulating sample): 3.71 fold | fold increase in glucose absorption (C2C12 cells [1]; [13]): 2.21 fold | fold increase in glucose absorption (C2C12 cells [1]; [7]): 2.36 fold | fold increase in glucose absorption (C2C12 cells [1]; [8]): 2.41 fold | fold increase in glucose absorption (C2C12 cells [1]; [9]): 3.74 fold | fold increase in glucose absorption (C2C12 cells [1]; [10]): 1.3 fold | fold increase in glucose absorption (C2C12 cells [1]; [11]): 1.6 fold | fold increase in glucose absorption (C2C12 cells [1]; [12]): 3.9 fold

Cr-TF: complex of the transferrin and Cr^3+
fold increase in glucose absorption (C2C12 cells [1]; [3]): 4.94 fold | fold increase in glucose absorption (C2C12 cells [1]; 80 μg/ml complex, vs no stimulating sample): 4.03 fold | fold increase in glucose absorption (C2C12 cells [1]; [4]): 5.0 fold

[O]=[V+2] [VO^2+, vanadyl]
fold increase in glucose absorption (C2C12 cells [1]; 0.1 μM metal solution, co-treatment with 0.1 μM insulin, vs no stimulating sample): 2.62 fold | glucose absorption in contrast to C2C12 cells without stimulation (in words) (C2C12 cells [1]): enhanced | fold increase in glucose absorption (C2C12 cells [1]; [6]): 2.7 fold | fold increase in glucose absorption (C2C12 cells [1]; [13]): 2.61 fold | fold increase in glucose absorption (C2C12 cells [1]; 10 μM metal solution, co-treatment with 10 μM insulin, vs no stimulating sample): 6.21 fold | fold increase in glucose absorption (C2C12 cells [1]; [8]): 2.38 fold | fold increase in glucose absorption (C2C12 cells [1]; [9]): 3.4 fold | fold increase in glucose absorption (C2C12 cells [1]; [10]): 2.7 fold | fold increase in glucose absorption (C2C12 cells [1]; [11]): 1.9 fold | fold increase in glucose absorption (C2C12 cells [1]; [12]): 4.4 fold
